Source: patent US20120244196A1, “PHARMACEUTICAL COMPOSITION CONTAINING MEDICAMENT-CONTAINING FINE PARTICLES AND METHOD FOR PRODUCING SAME” (NITTO DENKO CORPORATION, priority 2009, published 2012)
Where “and” joins values, the source holds several entries; their conditions need not be identical. Equal entries are not always repeated.

Tests used:
[1] = system: antibody against OVA in the serum; experiment: mouse immunity experiment, humoral immunity level (ELISA); assay type: in vivo, mouse (C57BL/6 lineage); settings: 200 μL intradermal, 62.5 μg/ml egg albumin, 3 injections at one week interval, one week after final injection, N = 2
Procedure: (§1) 200 μL of small particles of Example 10 (egg albumin concentration 62.5 μg/ml, pH 6.5) or egg albumin solution (egg albumin concentration 62.5 μg/ml, pH 6.5) was intradermally injected to the back of mouse (C57BL/6 lineage). Injection at one week interval was repeated twice, totaling 3 injections. One week after final injection, the humoral immunity level and cellular immunity level of the mouse were evaluated. The humoral immunity level was evaluated by measuring the amount of antibody against OVA in the serum based on the absorbance by ELISA method. The cellular immunity level was evaluated by stimulating the isolated spleen cells with OVA peptide, counting the spot number of the ELISPOT method, and measuring the secreted amount of IFN-y.

[2] = system: isolated spleen cells stimulated with OVA peptide; experiment: mouse immunity experiment, cellular immunity level (ELISPOT); assay type: in vivo, mouse (C57BL/6 lineage); settings: 200 μL intradermal, 62.5 μg/ml egg albumin, 3 injections at one week interval, one week after final injection, N = 2
Procedure: as §1

Question: Which results are given for “OVA solution: egg albumin solution (egg albumin concentration 62.5 μg/ml, pH 6.5), control in mouse immunity experiment”?
Answer: humoral immunity level of serum (absorbance at 450 nm by ELISA analysis), average [1]: 0.32; humoral immunity level of serum (absorbance at 450 nm by ELISA analysis), individual mice [1]: 0.23 and 0.40; cellular immunity level of spleen cell (SPOT number of ELISPOT analysis), average [2]: 62; cellular immunity level of spleen cell (SPOT number of ELISPOT analysis), individual mice [2]: 77 and 46
